What all share (assay): NCI tumour cell line growth inhibition, 48 h
Test [1] deals with IGROV-1.
The test system of test [2] is SK-MEL-5.
Test [3] concerns MOLT-4.
The subject of test [4] is ACHN.
In test [5] the test system is HL-60.
For test [6], the system named is KM12.
Test [7] has as its system SW-620.
For test [8], the system named is EKVX.
Test [9] deals with U-251.
For test [10], the system named is Malme-3M.
The test system of test [11] is NCI-H23.
Test [12] has as its system HCT-15.
Test [13] has as its system A549.
The test system of test [14] is SF-539.
For test [15], the system named is OVCAR-8.
Test [16] concerns NCI-H460.
For test [17], the system named is SNB-75.
The test system of test [18] is UACC-62.
The test system of test [19] is SK-MEL-28.
The subject of test [20] is RPMI-8226.

Each structure is given as a SMILES string.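 Results reflect a 48-hour exposure of cells in 96-well plates to compound at five concentrations. GI50 marks 50% less growth.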 Activity calls are given as the source filed them. No stated cut-off is given here; in the data, active = GI50 up to about 1.1 µM and inactive = higher.

Regarding `CN1CN(c2ccccc2)C2(CCNCC2)C1=O`, the GI50 in test [1], in test [2], in test [3], in test [4], in [5] and in test [6] was > 100 µM (inactive) throughout. Besides, the GI50 was > 100 µM (inactive) in [7]; > 100 µM (inactive) in test [8]; > 100 µM (inactive) in test [9]; > 100 µM (inactive) in test [10]; > 100 µM (inactive) in test [11]; > 100 µM in test [12]. In addition, the GI50 in [13], in test [14], in test [15], in test [16], in [17] and in test [18] was > 100 µM (inactive) in each case. Also, the GI50 in test [19] and in [20] was > 100 µM (inactive) in each case.
In the case of `N#Cc1ccc(C2Oc3ccc(Cl)cc3C=C2[N+](=O)[O-])cc1` (centres undefined), the GI50 in [1] was 1.61 µM (inactive); in test [2], 1.38 µM (inactive); in [3] it was 0.906 µM (active); in test [4], 1.67 µM (inactive); in [5], 0.841 µM (active); in test [6], 1.9 µM (inactive). For the same molecule, the GI50 in test [7] was 0.845 µM (active); in test [8] it was 1.75 µM (inactive); in [9], 1.74 µM (inactive); in [10] it was 2.11 µM (inactive); in test [11], 1.48 µM (inactive); in [12] it was 1.07 µM. In addition, the GI50 in test [13] was 1.85 µM (inactive); in [14], 1.87 µM (inactive); in [15], > 10 µM (inactive); in test [16] it was 2.22 µM (inactive); in test [17], 1.47 µM (inactive); in test [18], 1.63 µM (inactive). In addition, the GI50 in test [19] is 1.82 µM (inactive); in test [20], 0.334 µM (active).
On to `SC1=Nc2ccccc2-c2nc(-c3ccccc3)cc(-c3ccc(Br)cc3)c2C1`, for which the GI50 is 1.22 µM (inactive) in test [1]; 8.3 µM (inactive) in test [2]; 18.2 µM (inactive) in [3]; 18.4 µM (inactive) in [5]; 12 µM (inactive) in test [6]; 2.4 µM (inactive) in [7]. For the same molecule, the GI50 in test [8] was 1.33 µM (inactive); in test [9] it was 0.982 µM (active); in [10] it was 2.59 µM (inactive); in test [11] it was 2.65 µM (inactive); in [12] it was 3.54 µM; in test [13], 2.32 µM (inactive). Further, the GI50 was 3.27 µM (inactive) in test [14]; 1.1 µM (active) in test [15]; 0.859 µM (active) in test [16]; 1.26 µM (inactive) in [17]; 2.26 µM (inactive) in [18]; 11.2 µM (inactive) in test [19]. In test [20], the GI50 was 15.8 µM (inactive).
Take `Cc1ccc(NC(=O)OCC(COc2ccc(Cl)cc2)OC(=O)Nc2ccc(C)cc2)cc1` (centres undefined): the GI50 in test [1] was 9.79 µM (inactive); in [2] it was 24.5 µM (inactive); in [3], 16.2 µM (inactive); in test [4] it was 20.7 µM (inactive); in test [5], 0.938 µM (active); in [6] it was 23 µM (inactive). Besides, the GI50 in [7] was 17.1 µM (inactive); in test [8], 70.3 µM (inactive); in test [9], 28.4 µM (inactive); in [10], 19 µM (inactive); in test [11], 25.9 µM (inactive); in [12] it was 29.7 µM. Moreover, the GI50 in test [13] is 13.7 µM (inactive); in test [14], 21.6 µM (inactive); in test [15] it was 81.3 µM (inactive); in test [16], 25.9 µM (inactive); in [17], 14.5 µM (inactive); in test [18], 19.1 µM (inactive). Moreover, the GI50 in test [19] was 35.1 µM (inactive); in test [20] it was 9.77 µM (inactive).
For `C#Cc1cccc(N2C(=O)c3c(c(-c4ccccc4)c(-c4ccc(Cc5ccc(-c6c(-c7ccccc7)c7c(c(-c8ccccc8)c6-c6ccccc6)C(=O)N(c6cccc(C#C)c6)C7=O)cc5)cc4)c(-c4ccccc4)c3-c3ccccc3)C2=O)c1`, the GI50 in test [1] is 12.6 µM (inactive); in test [2] it was 21.9 µM (inactive); in test [3], 14.3 µM (inactive); in test [4], 15.9 µM (inactive); in test [5], 22.3 µM (inactive); in [6], 25.6 µM (inactive). The GI50 was 33 µM (inactive) in [7]; 51.2 µM (inactive) in [8]; 33 µM (inactive) in test [9]; 45 µM (inactive) in test [10]; 31.2 µM (inactive) in test [11]; 7.85 µM in test [12]. Besides, the GI50 is 24.4 µM (inactive) in test [13]; 21.2 µM (inactive) in test [14]; 31.5 µM (inactive) in [15]; 43.2 µM (inactive) in test [16]; 16.3 µM (inactive) in test [17]; 5.6 µM (inactive) in test [18]. For the same molecule, the GI50 in [19] was > 100 µM (inactive); in [20], 24.9 µM (inactive).
